From patent publication US9029396B2, “Substituted indole derivatives” (Novartis AG, priority 2011, dated 2015)
In brackets after ≈: the same amount, converted by molar mass.

Columns and labels:
[1] = Stability in gastric and intestinal simulated fluids at 37° C.; type: physicochemical
Method: Stability Assessments Stability of Cpd. Example No. 1 in Gastric and Intestinal Simulated Fluids at 37° C.:
Stability of compound Example No. 3
(Free form/acetate salt form) in gastric and intestinal simulated fluids at 37° C.: […]

[2] = Solubility in simulated gastric and intestinal fluids; type: physicochemical; conditions: Free Form
Excerpt: Solubility of compound Example No. 1 in simulated gastric and in simulated intestinal fluids at room temperature
Solubility of compound Example No. 3 (free form/acetate salt form) in simulated gastric fluids: […]

[3] = molecular target: T1, PKC-alpha (Homo sapiens, UniProt P17252); assay: Protein kinase C alpha assay (Caliper mobility shift); type: biochemical; conditions: full length human recombinant enzyme, 17 μM ATP; read-out: PKCα (IC50 in nM)
T1 construct: Both enzymes were full length human recombinant protein expressed in insect cells; purchased Invitrogen AG, Basel, Switzerland; host or cells: insect cells
Method: (§1) The compounds of the invention were tested for their activity on different PKC isotypes according to the following method. All assays were performed in 384 well microtiter plates. Each assay plate contained 8-point serial dilutions for 40 test compounds, as well as two 16-point serial dilutions of staurosporine as reference compound, plus 16 high- and 16 low controls. Liquid handling and incubation steps were done on a automated workstation equipped with a Innovadyne Nanodrop Express.
(§2) The assay plates were prepared by addition of 50 nL per well of compound solution in 90% DMSO. The kinase reactions were started by stepwise addition of 4.5 μl per well of a 2× peptide/ATP-solution and 4.5 μl per well of a 2× enzyme solution. The final concentration of reagents during kinase reaction were: 50 mM HEPES, pH 7.5, 1 mM DTT, 0.02% Tween20, 0.02% BSA, 0.6% DMSO, 10 mM beta-glycerophosphate, and 10 μM sodium orthovanadate. The peptide substrate used in the PKC-alpha and PKC-theta assays was Dy495-X5-ME-Mpr-RFARKGSLRQKNV-COOH. […]
(§3) Plates with terminated kinase reactions were transferred to the Caliper LC3000 workstations for reading. Phosphorylated and unphosphorylated peptides were separated using the Caliper microfluidic mobility shift technology and Kinase activities were calculated from the amounts of formed phospho-peptide.

[4] = Dog pharmacokinetics after oral administration of compound of example No. 1; type: in vivo, Beagle dogs; conditions: dog, blood
Method: A single dose of the compound of example 1 (3.0 mg/kg) was administered p.o. to 3 male Beagle dogs. Compound 1 was dosed as an aqueous suspension of the crystalline monohydrate form in Methylcellulose (0.5%): Tween 80 (1%) (90:10). Blood was taken in regular intervals by venipuncture, and the samples were analyzed for a period of up to 24 hours. The compounds of the examples 1, 2, and 3 were quantitatively assessed over time, and the results are tabulated below:
Key pharmacokinetic parameters (mean values±standard deviations (n=3) for 1, 2 and 3 after oral dosing of example No. 1.

[5] = molecular target: T2, PKC-theta (Homo sapiens, UniProt Q04759); assay: Protein kinase C theta assay (Caliper mobility shift); type: biochemical; conditions: full length human recombinant enzyme, 70 μM ATP; read-out: PKCθ (IC50 in nM)
T2 construct: Both enzymes were full length human recombinant protein expressed in insect cells; purchased Invitrogen AG, Basel, Switzerland; host or cells: insect cells
Method: as §1, §2, §3

[6] = Dog pharmacokinetics after oral administration of compound of example No. 3 (mono acetate salt); type: in vivo, Beagle dogs; conditions: blood
Method: Compound of Example No. 3 was administered orally as the mono acetate salt in a hard gelatine capsule to 6 fasted male Beagle dogs. A nominal dose of 100 mg/dog was given, resulting in dose of 8.9-11.3 mg/kg (weight of the dogs ranging from 8.9-11.3 kg). Blood was taken by venipuncture, and sampling was performed up to 32 h. Bioanalytic determination was performed for 3 and is tabulated below:
Key pharmacokinetic parameters (mean values or range) for compound No. 3 after oral dosing as described above.

T2 sequence (Q04759 whole entry): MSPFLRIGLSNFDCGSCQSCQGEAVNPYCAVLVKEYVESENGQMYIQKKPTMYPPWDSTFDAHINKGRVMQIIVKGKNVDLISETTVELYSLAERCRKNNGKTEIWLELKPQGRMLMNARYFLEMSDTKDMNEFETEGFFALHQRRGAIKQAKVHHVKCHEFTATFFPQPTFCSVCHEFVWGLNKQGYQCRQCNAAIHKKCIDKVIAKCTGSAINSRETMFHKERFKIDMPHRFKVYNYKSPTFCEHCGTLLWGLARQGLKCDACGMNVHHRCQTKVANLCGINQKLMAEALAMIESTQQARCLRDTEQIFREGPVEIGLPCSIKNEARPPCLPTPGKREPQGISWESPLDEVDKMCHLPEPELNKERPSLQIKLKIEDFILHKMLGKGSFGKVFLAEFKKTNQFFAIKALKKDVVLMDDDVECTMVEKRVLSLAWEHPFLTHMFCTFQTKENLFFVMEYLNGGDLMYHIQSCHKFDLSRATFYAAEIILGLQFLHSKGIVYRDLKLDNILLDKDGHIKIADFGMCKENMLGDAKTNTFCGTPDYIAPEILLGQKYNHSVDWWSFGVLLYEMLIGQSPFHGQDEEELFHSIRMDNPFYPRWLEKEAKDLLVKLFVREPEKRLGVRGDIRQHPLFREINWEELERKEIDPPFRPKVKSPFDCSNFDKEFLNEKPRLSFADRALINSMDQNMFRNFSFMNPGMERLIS

Amount in Area % of compound example No. 3 ([1]; Acetate Salt, FaSSIF pH 6.5, 37° C., 0 hours): 100 Area %
Amount in Area % of compound example No. 3 ([1]; Acetate Salt, FaSSIF pH 6.5, 37° C., 1 hours): 98.6 Area %
Amount in Area % of compound example No. 3 ([1]; Acetate Salt, FaSSIF pH 6.5, 37° C., 2.5 hours): 98.7 Area %
Amount in Area % of compound example No. 3 ([1]; Acetate Salt, FaSSIF pH 6.5, 37° C., 4 hours): 95.1 Area %
Amount in Area % of compound example No. 3 ([1]; Acetate Salt, FaSSIF pH 6.5, 37° C., 7 hours): 88.5 Area %
Amount in Area % of compound example No. 3 ([1]; Acetate Salt, FeSSIF pH 5.8, 37° C., 0 hours): 100 Area %
Amount in Area % of compound example No. 3 ([1]; Acetate Salt, FeSSIF pH 5.8, 37° C., 1 hours): 99.1 Area %
Amount in Area % of compound example No. 3 ([1]; Acetate Salt, FeSSIF pH 5.8, 37° C., 2.5 hours): 98.9 Area %
Amount in Area % of compound example No. 3 ([1]; Acetate Salt, FeSSIF pH 5.8, 37° C., 4 hours): 98 Area %
Amount in Area % of compound example No. 3 ([1]; Acetate Salt, FeSSIF pH 5.8, 37° C., 7 hours): 97.5 Area %
Amount in Area % of compound example No. 3 ([1]; Acetate Salt, SGF pH 2, 37° C., 0 hours): 100 Area %
Amount in Area % of compound example No. 3 ([1]; Acetate Salt, SGF pH 2, 37° C., 1 hours): 96.4 Area %
Amount in Area % of compound example No. 3 ([1]; Acetate Salt, SGF pH 2, 37° C., 2.5 hours): 93.2 Area %
Amount in Area % of compound example No. 3 ([1]; Acetate Salt, SGF pH 2, 37° C., 4 hours): 92.4 Area %
Amount in Area % of compound example No. 3 ([1]; Acetate Salt, SGF pH 2, 37° C., 7 hours): 90.0 Area %
Amount in Area % of compound example No. 3 ([1]; Free Form, FaSSIF pH 6.5, 37° C., 0 hours): 100 Area %
Amount in Area % of compound example No. 3 ([1]; Free Form, FaSSIF pH 6.5, 37° C., 1 hours): 100 Area %
Amount in Area % of compound example No. 3 ([1]; Free Form, FaSSIF pH 6.5, 37° C., 2.5 hours): 100 Area %
Amount in Area % of compound example No. 3 ([1]; Free Form, FaSSIF pH 6.5, 37° C., 4 hours): 90.7 Area %
Amount in Area % of compound example No. 3 ([1]; Free Form, FaSSIF pH 6.5, 37° C., 7 hours): 82.5 Area %
Amount in Area % of compound example No. 3 ([1]; Free Form, FeSSIF pH 5.8, 37° C., 0 hours): 100 Area %
Amount in Area % of compound example No. 3 ([1]; Free Form, FeSSIF pH 5.8, 37° C., 1 hours): 100 Area %
Amount in Area % of compound example No. 3 ([1]; Free Form, FeSSIF pH 5.8, 37° C., 2.5 hours): 100 Area %
Amount in Area % of compound example No. 3 ([1]; Free Form, FeSSIF pH 5.8, 37° C., 4 hours): 99.2 Area %
Amount in Area % of compound example No. 3 ([1]; Free Form, FeSSIF pH 5.8, 37° C., 7 hours): 98.7 Area %
Amount in Area % of compound example No. 3 ([1]; Free Form, SGF pH 2, 37° C., 0 hours): 98.8 Area %
Amount in Area % of compound example No. 3 ([1]; Free Form, SGF pH 2, 37° C., 1 hours): 98.6 Area %
Amount in Area % of compound example No. 3 ([1]; Free Form, SGF pH 2, 37° C., 2.5 hours): 98.1 Area %
Amount in Area % of compound example No. 3 ([1]; Free Form, SGF pH 2, 37° C., 4 hours): 97.9 Area %
Amount in Area % of compound example No. 3 ([1]; Free Form, SGF pH 2, 37° C., 7 hours): 97.9 Area %
solubility ([2]; FaSSIF pH 6.5): 30 µg/mL (≈ 64.7 µM)
solubility ([2]; FeSSIF pH 5.8): 280 µg/mL (≈ 604 µM)
solubility ([2]; simulated gastric fluid, SGF pH 2): 120 µg/mL (≈ 259 µM)
IC50 [3]: 0.4 nM
concentration at 0.083 h ([4]; po, male Beagle dogs, example 1 3.0 mg/kg p.o. (crystalline monohydrate suspension), 0.083 h): 15 nM
concentration at 0.25 h ([4]; po, male Beagle dogs, example 1 3.0 mg/kg p.o., 0.25 h): 167 nM
concentration at 0.5 h ([4]; po, male Beagle dogs, example 1 3.0 mg/kg p.o., 0.5 h): 757 nM
concentration at 0.75 h ([4]; po, male Beagle dogs, example 1 3.0 mg/kg p.o., 0.75 h): 1200 nM
concentration at 1 h ([4]; po, male Beagle dogs, example 1 3.0 mg/kg p.o., 1 h): 1310 nM
concentration at 2 h ([4]; po, male Beagle dogs, example 1 3.0 mg/kg p.o., 2 h): 1120 nM
concentration at 3 h ([4]; po, male Beagle dogs, example 1 3.0 mg/kg p.o., 3 h): 959 nM
concentration at 4 h ([4]; po, male Beagle dogs, example 1 3.0 mg/kg p.o., 4 h): 762 nM
concentration at 7 h ([4]; po, male Beagle dogs, example 1 3.0 mg/kg p.o., 7 h): 403 nM
concentration at 24 h ([4]; po, male Beagle dogs, example 1 3.0 mg/kg p.o., 24 h): 67.9 nM
Tmax ([4]; male, Beagle, 3 mg/kg, mean ± SD (n=3), after oral dosing of example No. 1 to dogs): 54 ± 6 min
IC50 [5]: 0.2 nM
concentration at 0.5 h ([6]; po, fasted male Beagle dogs, example No. 3 mono acetate salt p.o. 100 mg/dog, 0.5 h): 936 nM
concentration at 1 h ([6]; po, fasted male Beagle dogs, example No. 3 mono acetate salt p.o. 100 mg/dog, 1 h): 2160 nM
concentration at 2 h ([6]; po, fasted male Beagle dogs, example No. 3 mono acetate salt p.o. 100 mg/dog, 2 h): 2550 nM
concentration at 3 h ([6]; po, fasted male Beagle dogs, example No. 3 mono acetate salt p.o. 100 mg/dog, 3 h): 2000 nM
concentration at 4 h ([6]; po, fasted male Beagle dogs, example No. 3 mono acetate salt p.o. 100 mg/dog, 4 h): 1900 nM
concentration at 6 h ([6]; po, fasted male Beagle dogs, example No. 3 mono acetate salt p.o. 100 mg/dog, 6 h): 1490 nM
concentration at 8 h ([6]; po, fasted male Beagle dogs, example No. 3 mono acetate salt p.o. 100 mg/dog, 8 h): 1240 nM
concentration at 24 h ([6]; po, fasted male Beagle dogs, example No. 3 mono acetate salt p.o. 100 mg/dog, 24 h): 276 nM
concentration at 32 h ([6]; po, fasted male Beagle dogs, example No. 3 mono acetate salt p.o. 100 mg/dog, 32 h): 116 nM
concentration at 0.25 h ([6]; po, fasted male Beagle dogs, example No. 3 mono acetate salt, capsule p.o. 100 mg/dog, 0.25 h): 177 nM
Tmax ([6]; male, Beagle, dog, 100 mg, range, after oral dosing of example No. 3 mono acetate salt to dogs): 30 to 120 min
Structure (SMILES): Cc1cccc2c(C3=C(c4nc(N5CCNC6(CC6)C5)cc5ccccc45)C(=O)NC3=O)c[nH]c12 [Example 3, 3-[3-(4,7-diaza-spiro[2.5]oct-7-yl)-isoquinolin-1-yl]-4-(7-methyl-1H-indol-3-yl)-pyrrole-2,5-dione]
